Measurements taken from article PMC9562371 (RSC Advances, 2022).

Target: T1, m-OLF (myocilin OLF domain) (Homo sapiens, UniProt Q99972)
T1 sequence (Q99972 244-504): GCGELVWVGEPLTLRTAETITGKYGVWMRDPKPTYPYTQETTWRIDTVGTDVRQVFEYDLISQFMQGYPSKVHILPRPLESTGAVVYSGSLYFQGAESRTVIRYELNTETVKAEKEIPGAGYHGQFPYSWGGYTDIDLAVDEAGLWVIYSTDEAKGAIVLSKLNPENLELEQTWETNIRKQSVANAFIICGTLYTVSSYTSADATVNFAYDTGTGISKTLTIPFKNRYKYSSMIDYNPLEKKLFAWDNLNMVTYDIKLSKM
Experiment: surface plasmon resonance
Type: binding

- Kd: 19.8 µM
SMILES: O=C(O[C@@H]1Cc2c(O)cc(O)cc2O[C@@H]1c1ccc(O)c(O)c1)c1cc(O)c(O)c(O)c1 [ECG]
